From PubChem BioAssay AID248 (DTP/NCI, 2004)
Values joined by “and” are separate entries in the source; they are usually repeats but may differ in a detail not shown here. Equal entries are not always repeated. Inconclusive results and toxic doses are left out. Cut-off read from the data, not from the text of the source: active = T/C of 150% or more; inactive = T/C below 125%.

Test system: L1210 leukemia ip in BDF1 mice, survival T/C
Test: NCI In Vivo Anticancer Drug Screen. Data for tumor model L1210 Leukemia (intraperitoneal) in B6D2F1 (BDF1) mice
Conditions: endpoint: mean survival time, higher = longer survival
Method in brief: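 Tumor was transplanted into mice, which were then dosed with test compound or vehicle alone. Survival was recorded for each group, and the treated figure was expressed relative to the control figure.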

[1] = dose: 100.0 mg/kg/injection, schedule: Q04DX002 (ip), vehicle: saline with Tween-80
[2] = dose: 200.0 mg/kg/injection, schedule: Q04DX002 (ip), vehicle: saline with Tween-80
[3] = dose: 400.0 mg/kg/injection, schedule: Q04DX002 (ip), vehicle: saline with Tween-80
[4] = dose: 100.0 mg/kg/injection, schedule: Q01DX009 (ip), vehicle: Klucel (hydroxypropylcellulose) (HPC)
[5] = dose: 100.0 mg/kg/injection, schedule: Q01DX009 (ip), vehicle: saline
[6] = dose: 200.0 mg/kg/injection, schedule: Q01DX009 (ip), vehicle: saline
[7] = dose: 400.0 mg/kg/injection, schedule: Q01DX009 (ip), vehicle: saline
[8] = dose: 12.5 mg/kg/injection, schedule: Q04DX003 (ip), vehicle: saline
[9] = dose: 100.0 mg/kg/injection, schedule: Q04DX003 (ip), vehicle: saline

Measured: T/C

CCOC(=O)C(C(=O)OCC)C(C)c1ccc([N+](=O)[O-])cc1 (centres undefined)
inactive: dose: 100.0 mg/kg/injection, schedule: Q01DX009 (ip), vehicle: saline with Tween-80 106 % of control | [1] 100 % of control | dose: 200.0 mg/kg/injection, schedule: Q01DX009 (ip), vehicle: saline with Tween-80 106 % of control | [2] 103 % of control | dose: 400.0 mg/kg/injection, schedule: Q01DX009 (ip), vehicle: saline with Tween-80 113 % of control | [3] 92 % of control

O=C(NC(=S)Nc1ccc(F)cc1)c1ccco1
inactive: dose: 50.0 mg/kg/injection, schedule: Q01DX009 (ip), vehicle: Klucel (hydroxypropylcellulose) (HPC) 94 % of control | [4] 92 % of control | dose: 100.0 mg/kg/injection, schedule: Q04DX003 (ip), vehicle: Klucel (hydroxypropylcellulose) (HPC) 103 % of control | dose: 200.0 mg/kg/injection, schedule: Q04DX003 (ip), vehicle: Klucel (hydroxypropylcellulose) (HPC) 97 % of control

c1ccc(-c2oc(-c3ccccc3)c3c2CCCC3)cc1
inactive: [4] 100 % of control | dose: 200.0 mg/kg/injection, schedule: Q01DX009 (ip), vehicle: Klucel (hydroxypropylcellulose) (HPC) 98 % of control | dose: 400.0 mg/kg/injection, schedule: Q01DX009 (ip), vehicle: Klucel (hydroxypropylcellulose) (HPC) 98 % of control

CC(=O)CC(=O)N1CCN(C(=O)CC(C)=O)CC1
inactive: [5] 100 % of control | [6] 96 % of control | [7] 100 % of control

O=[N+]([O-])c1ccc(/C=C/c2nnc(/C=C/c3ccc([N+](=O)[O-])cc3)o2)cc1
inactive: dose: 50.0 mg/kg/injection, schedule: Q04DX002 (ip), vehicle: saline with Tween-80 100 % of control | [1] 89 % of control | [2] 92 % of control | [3] 100 % of control

CCC(SC#N)C(CC)SC#N (centres undefined)
inactive: dose: 12.5 mg/kg/injection, schedule: Q04DX002 (ip), vehicle: Klucel (hydroxypropylcellulose) (HPC) 103 % of control | dose: 25.0 mg/kg/injection, schedule: Q04DX002 (ip), vehicle: Klucel (hydroxypropylcellulose) (HPC) 93 % of control | dose: 50.0 mg/kg/injection, schedule: Q04DX002 (ip), vehicle: Klucel (hydroxypropylcellulose) (HPC) 90 % of control

C/C=C(/Cl)C(=O)O
inactive: dose: 5.0 mg/kg/injection, schedule: Q01DX001 (ip), vehicle: saline 100 % of control | dose: 10.0 mg/kg/injection, schedule: Q01DX001 (ip), vehicle: saline 97 % of control | dose: 20.0 mg/kg/injection, schedule: Q01DX001 (ip), vehicle: saline 97 % of control | dose: 40.0 mg/kg/injection, schedule: Q01DX001 (ip), vehicle: saline 103 % of control | dose: 80.0 mg/kg/injection, schedule: Q01DX001 (ip), vehicle: saline 103 % of control

CCOC(=O)CCC(C(=O)OCC)N(CC(=O)OCC)C(=O)c1ccccc1 (centres undefined)
inactive: dose: 100.0 mg/kg/injection, schedule: Q04DX003 (ip), vehicle: saline with Tween-80 102 % of control | dose: 200.0 mg/kg/injection, schedule: Q04DX003 (ip), vehicle: saline with Tween-80 98 % of control | dose: 400.0 mg/kg/injection, schedule: Q04DX003 (ip), vehicle: saline with Tween-80 96 % of control

CO/N=C(/C)C1(O)Cc2c(O)c3c(c(O)c2C(OC2CC(N)C(O)C(C)O2)C1)C(=O)c1c(OC)cccc1C3=O (centres undefined)
inactive: dose: 1.0 mg/kg/injection, schedule: Q01DX009 (ip), vehicle: water 109 % of control | dose: 2.0 mg/kg/injection, schedule: Q01DX009 (ip), vehicle: water 109 % of control | dose: 2.0 mg/kg/injection, schedule: Q04DX003 (ip), vehicle: water 101 % of control | dose: 3.12 mg/kg/injection, schedule: Q01DX009 (ip), vehicle: saline with Tween-80 111 % of control | dose: 4.0 mg/kg/injection, schedule: Q01DX009 (ip), vehicle: water 108 % of control | dose: 4.0 mg/kg/injection, schedule: Q04DX003 (ip), vehicle: water 100 % of control | dose: 6.25 mg/kg/injection, schedule: Q01DX009 (ip), vehicle: saline with Tween-80 106 % of control | dose: 8.0 mg/kg/injection, schedule: Q01DX009 (ip), vehicle: water 106 % of control | dose: 8.0 mg/kg/injection, schedule: Q04DX003 (ip), vehicle: water 101 % of control | dose: 12.5 mg/kg/injection, schedule: Q01DX009 (ip), vehicle: saline with Tween-80 106 % of control | [8] 95 % of control | dose: 125.0 micrograms/kg/injection, schedule: Q04DX003 (ip), vehicle: water 100 % of control | dose: 250.0 micrograms/kg/injection, schedule: Q04DX003 (ip), vehicle: water 101 % of control | dose: 500.0 micrograms/kg/injection, schedule: Q04DX003 (ip), vehicle: water 97 % of control | dose: 1000.0 micrograms/kg/injection, schedule: Q04DX003 (ip), vehicle: water 105 % of control | dose: 2000.0 micrograms/kg/injection, schedule: Q04DX003 (ip), vehicle: water 102 % of control

CCNC(C)C
inactive: dose: 25.0 mg/kg/injection, schedule: Q01DX009 (ip), vehicle: saline 98 % of control | dose: 25.0 mg/kg/injection, schedule: Q04DX003 (ip), vehicle: saline 92 % of control | dose: 50.0 mg/kg/injection, schedule: Q01DX009 (ip), vehicle: saline 93 % of control | dose: 50.0 mg/kg/injection, schedule: Q04DX003 (ip), vehicle: saline 97 % of control | [5] 98 % of control | [9] 95 % of control and 107 % of control

C(=P(c1ccccc1)(c1ccccc1)c1ccccc1)[P+](c1ccccc1)(c1ccccc1)c1ccccc1
inactive: dose: 0.78 mg/kg/injection, schedule: Q01DX009 (ip), vehicle: saline 102 % of control and 109 % of control | dose: 1.56 mg/kg/injection, schedule: Q01DX009 (ip), vehicle: saline 98 % of control and 88 % of control | dose: 3.12 mg/kg/injection, schedule: Q01DX009 (ip), vehicle: saline 100 % of control | dose: 3.13 mg/kg/injection, schedule: Q01DX001 (ip), vehicle: saline 90 % of control | dose: 3.13 mg/kg/injection, schedule: Q04DX002 (ip), vehicle: saline 97 % of control | dose: 3.13 mg/kg/injection, schedule: Q04DX003 (ip), vehicle: saline 102 % of control | dose: 6.0 mg/kg/injection, schedule: Q01DX009 (ip), vehicle: saline 106 % of control | dose: 6.25 mg/kg/injection, schedule: Q01DX001 (ip), vehicle: saline 100 % of control | dose: 6.25 mg/kg/injection, schedule: Q01DX009 (ip), vehicle: saline 117 % of control | dose: 6.25 mg/kg/injection, schedule: Q04DX002 (ip), vehicle: saline 96 % of control and 100 % of control | dose: 6.25 mg/kg/injection, schedule: Q04DX003 (ip), vehicle: saline 106 % of control | dose: 9.3 mg/kg/injection, schedule: Q01DX009 (ip), vehicle: saline 95 % of control | dose: 12.5 mg/kg/injection, schedule: Q01DX001 (ip), vehicle: saline 97 % of control | dose: 12.5 mg/kg/injection, schedule: Q01DX009 (ip), vehicle: saline 115 % of control and 117 % of control | dose: 12.5 mg/kg/injection, schedule: Q04DX002 (ip), vehicle: saline 97 % of control and 99 % of control | [8] 101 % of control | dose: 13.0 mg/kg/injection, schedule: Q01DX009 (ip), vehicle: saline 93 % of control | dose: 100.0 mg/kg/injection, schedule: Q04DX002 (ip), vehicle: saline 90 % of control | dose: 200.0 mg/kg/injection, schedule: Q04DX002 (ip), vehicle: saline 93 % of control

CN1CCC2CCCCC2C1Cc1ccc(Oc2ccc(CC3C4CCCCC4CCN3C)cc2)cc1 (centres undefined)
inactive: dose: 0.78 mg/kg/injection, schedule: Q04DX002 (ip), vehicle: Klucel (hydroxypropylcellulose) (HPC) 91 % of control | dose: 1.56 mg/kg/injection, schedule: Q04DX002 (ip), vehicle: Klucel (hydroxypropylcellulose) (HPC) 88 % of control | dose: 3.12 mg/kg/injection, schedule: Q04DX002 (ip), vehicle: Klucel (hydroxypropylcellulose) (HPC) 91 % of control

CCC(Cc1ccccc1Br)C1=NC(C)(C)CO1 (centres undefined)
inactive: [5] 90 % of control | [9] 105 % of control | [6] 90 % of control | dose: 200.0 mg/kg/injection, schedule: Q04DX003 (ip), vehicle: saline 107 % of control | [7] 106 % of control | dose: 400.0 mg/kg/injection, schedule: Q04DX003 (ip), vehicle: saline 100 % of control

Cc1ccc2nc(C)ccc2c1
inactive: dose: 50.0 mg/kg/injection, schedule: Q01DX001 (ip), vehicle: Klucel (hydroxypropylcellulose) (HPC) 101 % of control | dose: 100.0 mg/kg/injection, schedule: Q01DX001 (ip), vehicle: Klucel (hydroxypropylcellulose) (HPC) 109 % of control | dose: 200.0 mg/kg/injection, schedule: Q01DX001 (ip), vehicle: Klucel (hydroxypropylcellulose) (HPC) 107 % of control
